Measured values as given in patent US20220105150A1, “AMPHIPATHIC ALPHA-HELICAL ANTIMICROBIAL PEPTIDES TREAT INFECTIONS BY GRAM-NEGATIVE PATHOGENS” (priority 2019, published 2022).
≈ marks a conversion by molar mass, not a printed value.

Tests used:
[1] = system: Acinetobacter baumannii isolates resistant to classical antibiotics; assay type: cell-based; conditions: for MICGM: geometric mean over 20 strains; for MIC 101887: strain 101887 (lower line); for MIC 961997: strain 961997 (lower line); for MIC 963618: strain 963618 (lower line); for MIC 964304: strain 964304 (lower line); for MIC 977751: strain 977751 (lower line); for MIC 981653: strain 981653 (lower line); for MIC 1002956: strain 1002956 (lower line); for MIC 1007660: strain 1007660 (lower line); for MIC 1010282: strain 1010282 (lower line); for MIC 1035166: strain 1035166 (lower line)
[2] = system: A. baumannii strain 649; assay type: cell-based, Acinetobacter baumannii; conditions: for fold loss of antimicrobial activity in 25% human sera: 25% human sera versus no serum; for MIC 25% human serum: MH medium supplemented with 25% (v/v) human sera; for MIC No serum: MH medium
Method: (§1) Hemoglobin release was determined spectrophotometrically at 570 nm.
Because only unbound AMP is available to interact with the therapeutic target, the extent of binding between AMPs and serum proteins can have significant effects on efficacy of these drugs. […] This assay estimates the in vivo bioavailability of our AMPs. […] An increase in MIC in the presence of serum is attributed to inhibition of antimicrobial activity due to binding to serum proteins.

[3] = Peptide self-association by temperature profiling in RP-HPLC; assay type: physicochemical; conditions: for PA: self-association parameter relative to random coil control peptide RC; for Tp: temperature at which maximum retention time is observed, 5-77° C.
Method: Retention behavior from eight AMPs after normalization to their retention times at 5° C. over the temperature range 5° C. to 41° C. in 2° C. increments or 5° C. to 75° C. in 10° C. increments (methodology details provided in Examples). […] Peptide denotions in FIG. 5 have been abbreviated from those shown in Table 1G; for example, D87(Lys1-6 Arg-1) has been shortened to D87(6 Arg-1). RC is a random coil control peptide used for RP-HPLC temperature profiling. The peptide self-association parameter, PA, represents the maximum change in peptide retention time relative to the random coil peptide, RC (PA values shown in Table 6). […] T., et al. J. Med. Chem. 2019, 62:3354-66.
as §1
Peptide self-association, the ability to dimerize/oligomerize in aqueous solution, is a very important parameter to optimize antimicrobial activity and toxicity as measured by hemolytic activity. We have proposed that the monomeric random-coil antimicrobial peptides in aqueous solution are best suited to pass through a polysaccharide capsule, the outer membrane lipopolysaccharide and the cell wall peptidoglycan layer of Gram-negative bacteria prior to penetration into the cytoplasmic membrane, where there is induction of α-helical structure and disruption of membrane structure, cell leakage and death of bacterial cells. In contrast, if the self-association ability of an AMP in aqueous medium is too strong, stable folded dimers/oligomers are formed through interaction of their non-polar faces which decreases the ability of the AMP to dissociate to monomer and the dimer/oligomer to effectively pass through the capsule and cell wall to reach the cytoplasmic membrane. The ability of an AMP to self-associate was determined by a RP-HPLC technique developed in our laboratory, referred to as temperature profiling over the temperature range 5° C. to 80° C. […] These eight AMPs are compared to a random-coil control peptide denoted RC. […] This linear decrease in retention behavior with increasing temperature represents the general effects of temperature due to greater solute diffusivity and enhanced mass transfer between the mobile and stationary phases. The difference in retention time between an amphipathic α-helical antimicrobial peptide and the RC control peptide is a measure of the ability of a peptide to associate. The association parameter, PA is large for AMPs without specificity determinants (Ala 13 and Ala 16) ranging from 12.5 to 28.0 min (Table 6) and is shown by a black arrow in FIG. 5. The association parameter, PA, is dramatically smaller for AMPs with specificity determinants (Lys 13 and Lys 16 in the center of the non-polar face) and range from 0 to 6 min (Table 6). […]

Q: Which MICGM [1] does the source give for CC(=O)N[C@H](CCCCN)C(=O)N[C@H](CC(C)C)C(=O)N[C@H](CCN)C(=O)N[C@H](CO)C(=O)N[C@H](CC(C)C)C(=O)N[C@H](CC(C)C)C(=O)N[C@H](CCN)C(=O)N[C@@H](C(=O)N[C@H](CC(C)C)C(=O)N[C@H](CO)C(=O)N[C@H](CCN)C(=O)N[C@H](C)C(=O)N[C@H](C)C(=O)N[C@H](C)C(=O)N[C@H](C)C(=O)N[C@H](C)C(=O)N[C@H](CC(C)C)C(=O)N[C@H](CCN)C(=O)N[C@@H](C(=O)N[C@H](CC(C)C)C(=O)N[C@H](CC(C)C)C(=O)N[C@H](CCN)C(=O)N[C@H](C)C(=O)N[C@H](CC(C)C)C(=O)N[C@H](CO)C(=O)N[C@H](CCN)C(N)=O)[C@H](C)O)[C@H](C)O [D86(K13A/K16A)-(Lys^1-6Dab-1), Ac-KL(Dab)SLL(Dab)TLS(Dab)AAAAAL(Dab)TLL(Dab)ALS(Dab)-amide] here?
A: The MICGM was 0.9 µM.

Q: And the “MIC 101887” value [1]?
A: Its value is 0.5 µM (≈ 1.29 µg/mL).

Q: What about the “MIC 961997” value [1] of the same compound?
A: The value was 0.8 µM (≈ 2.07 µg/mL).

Q: What about the “MIC 963618” value [1] of the same compound?
A: Its value is 0.8 µM (≈ 2.07 µg/mL).

Q: What about the “MIC 964304” value [1] of the same compound?
A: Its value is 1.5 µM (≈ 3.87 µg/mL).

Q: And the “MIC 977751” value [1]?
A: The value was 3.1 µM (≈ 8.01 µg/mL).

Q: And the “MIC 981653” value [1]?
A: Its value is 0.4 µM (≈ 1.03 µg/mL).

Q: And the “MIC 1002956” value [1]?
A: The value was 0.8 µM (≈ 2.07 µg/mL).

Q: And the “MIC 1007660” value [1]?
A: The value was 0.8 µM (≈ 2.07 µg/mL).

Q: And the “MIC 1010282” value [1]?
A: Its value is 0.8 µM (≈ 2.07 µg/mL).

Q: And the “MIC 1035166” value [1]?
A: Its value is 0.8 µM (≈ 2.07 µg/mL).

Q: What about the “fold loss of antimicrobial activity in 25% human sera” value [2] of the same compound?
A: The value was 4 fold.

Q: And the “MIC 25% human serum” value [2]?
A: Its value is 3.0 µM (≈ 7.75 µg/mL).

Q: What about the “MIC No serum” value [2] of the same compound?
A: Its value is 0.8 µM (≈ 2.07 µg/mL).

Q: And the PA [3]?
A: Its PA is 12.5 min.

Q: What about the Tp [3] of the same compound?
A: Its Tp is 31.0 °C.

Q: For CC(=O)N[C@H](CCCCN)C(=O)N[C@H](CC(C)C)C(=O)N[C@H](CN)C(=O)N[C@H](CO)C(=O)N[C@H](CC(C)C)C(=O)N[C@H](CC(C)C)C(=O)N[C@H](CN)C(=O)N[C@@H](C(=O)N[C@H](CC(C)C)C(=O)N[C@H](CO)C(=O)N[C@H](CN)C(=O)N[C@H](C)C(=O)N[C@H](C)C(=O)N[C@H](C)C(=O)N[C@H](C)C(=O)N[C@H](C)C(=O)N[C@H](CC(C)C)C(=O)N[C@H](CN)C(=O)N[C@@H](C(=O)N[C@H](CC(C)C)C(=O)N[C@H](CC(C)C)C(=O)N[C@H](CN)C(=O)N[C@H](C)C(=O)N[C@H](CC(C)C)C(=O)N[C@H](CO)C(=O)N[C@H](CN)C(N)=O)[C@H](C)O)[C@H](C)O [D105(K13A/K16A)-(Lys^1-6Dap-1), Ac-KL(Dap)SLL(Dap)TLS(Dap)AAAAAL(Dap)TLL(Dap)ALS(Dap)-amide], which MICGM [1] is on record?
A: Its MICGM is 2.0 µM.

Q: What about the “MIC 101887” value [1] of the same compound?
A: The value was 3.2 µM (≈ 8 µg/mL).

Q: What about the “MIC 961997” value [1] of the same compound?
A: The value was 3.2 µM (≈ 8 µg/mL).

Q: And the “MIC 963618” value [1]?
A: Its value is 1.6 µM (≈ 4 µg/mL).

Q: And the “MIC 964304” value [1]?
A: The value was 3.2 µM (≈ 8 µg/mL).

Q: What about the “MIC 977751” value [1] of the same compound?
A: Its value is 0.8 µM (≈ 2 µg/mL).

Q: And the “MIC 981653” value [1]?
A: Its value is 1.6 µM (≈ 4 µg/mL).

Q: And the “MIC 1002956” value [1]?
A: The value was 1.6 µM (≈ 4 µg/mL).

Q: What about the “MIC 1007660” value [1] of the same compound?
A: Its value is 3.2 µM (≈ 8 µg/mL).

Q: What about the “MIC 1010282” value [1] of the same compound?
A: The value was 1.6 µM (≈ 4 µg/mL).

Q: What about the “MIC 1035166” value [1] of the same compound?
A: Its value is 3.2 µM (≈ 8 µg/mL).

Q: And the “fold loss of antimicrobial activity in 25% human sera” value [2]?
A: The value was 15 fold.

Q: And the “MIC 25% human serum” value [2]?
A: The value was 12.5 µM (≈ 31.2 µg/mL).

Q: What about the “MIC No serum” value [2] of the same compound?
A: Its value is 0.8 µM (≈ 2 µg/mL).

Q: What about the PA [3] of the same compound?
A: Its PA is 18.0 min.

Q: What about the Tp [3] of the same compound?
A: Its Tp is 39.0 °C.
